# According to patent US11242555B2, “Molecular sensors and uses thereof” (New York University, priority 2018, dated 2022):
# “Also recorded” adds a separate entry of the source. Starred links: 1 amine or outer side, 2 acyl side, 3 side chain; linkers in the order of their positions; H or OH if unused. Positions of bridges follow the written chain, without caps; N, C: chain ends. Non-standard residues stand in square brackets, D forms with d. Residues, ends and D or L forms follow the SMILES beside them. Chains are numbered I, II in the order given. Actinocin(9to1) = Cc1c2oc3c(C)ccc(C(=O)[*:1])c3nc-2c(C(=O)[*:2])c(N)c1=O; NMeV = CN[C@H](C(=O)O)C(C)C; Sar = CNCC(=O)O
# Tests used:
# [1] = tested on: nuclei of cells in culture; assay: Flexible sensor FRET ratio within nuclei of cells treated with chromatin-disrupting drugs (macromolecular crowding); type: cell-based; conditions: flexible sensor within nuclei of cells in culture medium
# Description: The flexible molecular sensors reports on the local macromolecular crowding within living cells in culture (FIG. 5). The sensor was introduced into cells by liposome transfection. After a short incubation period of 45 minutes, the cells plated on an imaging well were washed and imaged using scanning laser confocal microscopy. The cells were then imaged by exciting the donor (Cy3) and imaging the fluorescence of Cy3 and Cy5 (acceptor) in the appropriate spectral ranges (top two images). The false-colored images can be merged therefore producing another false color image where green (FIG. 5—top left) indicates a small FRET ratio and red (FIG. 5—top right) a large FRET ratio an intermediate values being yellow/orange (FIG. 5—bottom left). A quantitative measurement of the FRET ratio is represented as a gray scale image (FIG. 5—bottom right) where each pixel is in the ratio of the intensity in the Cy5 channel divided by that in the Cy3 channel. Local variations indicate local differences in the degree of macromolecular crowding.
# Drugs that disrupt chromatin compaction result in a more crowded nucleus (FIG. 11). The FRET ratio was measured within the nuclei of cells in culture medium in the absence and presence of drugs that disrupt chromatin structure. Three drugs that disrupt chromatin in different ways were used: trichostatin A (TSA) and tubacin both of which inhibit histone deacetylases, and etoposide which forms a complex with DNA and topisomerase II resulting in the accumulation of DNA breaks.
# [2] = tested on: double-stranded oligo probe (DNA); assay: High-throughput screen of a compound library with the linear oligo probe (FRET ratio, 384 well plate); type: binding
# Description: A library of compounds was mixed with the oligo probe in 384 well plate format. (A) The fluorescence spectra of the probe were recorded on a plate reader as in FIG. 21 and the FRET ratio (Cy5/Cy3 intensity) was calculated. […] (B) A library consisting of 1600 compounds from FDA and internationally approved drugs was screened to detect potential intercalators that can be drug repositioning targets.
# The molecular sensors were used in vitro according to the following: 1) The sensors were diluted in a NaCl solution (e.g., in a 50-100 mM NaCl solution) and 0.2% BSA solution to a concentration of 1 μM. This can be adjusted depending on the sensitivity of the fluorescence measurement device. 2) The fluorescence spectrum was measured using a fluorescence spectrophotometer, a plate reader, or any other ad-hoc means. […] 3) The molecular species was added to be characterized for DNA binding properties or to be tested for intercalating or groove binding ability. The appropriate sensor is used (e.g., a linear or flexible molecular sensor). The fluorescence spectrum was measured again using the same methods and settings. 4) The FRET ratio was compared for both the sensor alone and sensor plus tested molecule. The FRET ratio is calculated by dividing the peak intensity of the acceptor fluorescence by that of the donor fluorescence.
# [3] = tested on: double-stranded oligo probe (DNA); assay: Linear oligo probe titration with intercalating drug in solution (FRET ratio, Hill plot binding constant); conditions: for binding constant: Hill plot fit of fraction of intercalated bases vs drug concentration, all binding sites assumed occupied at saturation
# [4] = tested on: DNA within living cells; assay: Linear probe in living cells transfected with the oligo probe (confocal FRET ratio); type: cell-based; conditions: for FRET ratio (Cy5:Cy3) in cells in presence of intercalating drug vs no drug: cells transfected with linear probe, drug in culture medium
# Description: Cells transfected with the oligo probe were imaged by exciting the donor (Cy3) and imaging the fluorescence of Cy3 (A) and Cy5 (acceptor) (B) in the appropriate spectral ranges using a confocal microscope. (C) The false-colored images can be merged, therefore producing a false color image where orange indicates a large FRET ratio. […] (G) The drop in the FRET ratio is measured by calculating the ratio of the Cy5 signal to that of Cy3 within the nuclei of cells in presence of the three intercalating compounds.
# The molecular sensors were used in cell culture according to the following: 1) the desired cells were prepared in glass-bottom culture dishes or wells to a confluence lower than 70%. 2) Two hours before imaging, a desired transfection protocol (e.g., liposome transfection), and the like) is used with either sensor depending on the desired mode of DNA binding to be investigated. 3) After the transfection period, the culture was washed from excess sensors. 4) The culture disk was transferred to the confocal microscope for imaging. […] 6) If using filter cubes use the appropriate cubes to image donor fluorescence in one channel and acceptor fluorescence in the other. If using spectral imaging set the imaging wavelength windows for the two fluorophores. 7) Cells were identified that have been successfully transfected as indicated by fluorescence throughout the cell. 8) Images were acquired in both channels. 9) Software to calculate the ratio of acceptor/donor fluorescence (the FRET ratio) for the desired regions within the imaged cells was used. 10) The desired drug to be tested was added. 11) The cells were imaged again and the FRET ratio was calculated as a function of the desired variable: e.g. time, drug concentration, region within the cell, etc. A change in the FRET ratio indicates DNA drug binding.
# Using laser scanning confocal microscopy the cells are imaged by exciting the donor (Cy3) and imaging the fluorescence of Cy3 and Cy5 (acceptor) in the appropriate spectral ranges (images A, B, D, E). The false-colored images can be merged therefore producing a false color image where green indicates a small FRET ratio and red a large FRET ratio and intermediate values being yellow/orange (images C and F). […] The FRET ratio can be measured from the ratio of Cy5:Cy3 intensities.
# Cells were transfected with the sensor and imaged in culture medium as described in FIG. 17. […] The average FRET ratio measured as Cy5:Cy3 intensities in the images is plotted as a function of time in the lower right panel.
structure (smiles),measurement,setting,value
COc1cc([C@@H]2c3cc4c(cc3[C@@H](O[C@@H]3O[C@@H]5CO[C@@H](C)O[C@H]5[C@H](O)[C@H]3O)[C@H]3COC(=O)[C@H]23)OCO4)cc(OC)c1O [etoposide],FRET ratio in nuclei of treated cells compared to untreated cells,[1],larger FRET ratio
O=C(CCCCCCC(=O)Nc1ccc([C@H]2O[C@@H](CSc3nc(-c4ccccc4)c(-c4ccccc4)o3)C[C@@H](c3ccc(CO)cc3)O2)cc1)NO [tubacin],FRET ratio in nuclei of treated cells compared to untreated cells,[1],larger FRET ratio
"Cc1c2oc3c(C)ccc(C(=O)N[C@@H]4C(=O)N[C@H](C(C)C)C(=O)N5CCC[C@H]5C(=O)N(C)CC(=O)N(C)[C@@H](C(C)C)C(=O)O[C@@H]4C)c3nc-2c(C(=O)N[C@@H]2C(=O)N[C@H](C(C)C)C(=O)N3CCC[C@H]3C(=O)N(C)CC(=O)N(C)[C@@H](C(C)C)C(=O)O[C@@H]2C)c(N)c1=O [DACTINOMYCIN] (I: T[dV]P[Sar][NMeV] / II: T[dV]P[Sar][NMeV]; ester I:1-I:C, II:1-II:C; linker I:N-II:N via Actinocin(9to1))",FRET ratio,[2],0.4765
same,binding constant,[3],2e+06 M⁻¹
same,FRET ratio as a function of intercalator concentration,"[3]; linear probe in solution, excited at 500 nm, peak acceptor/peak donor",decreases
same,FRET ratio (Cy5:Cy3) in cells in presence of intercalating drug vs no drug,[4],drop if the FRET efficiency upon intercalation within the cell
same,FRET ratio (Cy5:Cy3) in cells in presence of intercalating drug vs no drug,[4]; listed as Actinomycin D,decrease in the FRET ratio; also recorded: clear difference in FRED ratio
same,time-course of drug entry into the cell (drop in FRET ratio within the nucleus),[4]; time-lapse after drug was introduced into the culture medium,from orange (high FRET) to green (low FRET)
CS[C@H]1SC[C@H]2C(=O)N(C)[C@@H](C(C)C)C(=O)OC[C@@H](NC(=O)c3cnc4ccccc4n3)C(=O)N[C@@H](C)C(=O)N(C)[C@@H]1C(=O)N(C)[C@@H](C(C)C)C(=O)OC[C@@H](NC(=O)c1cnc3ccccc3n1)C(=O)N[C@@H](C)C(=O)N2C [Echinomycin],binding constant,[3],400000 M⁻¹
same,FRET ratio (Cy5:Cy3) in cells in presence of intercalating drug vs no drug,[4],clear difference in FRED ratio
CC(/C=C/C(=O)NO)=C\[C@@H](C)C(=O)c1ccc(N(C)C)cc1 [trichostatin A],FRET ratio in nuclei of treated cells compared to untreated cells,[1],larger FRET ratio
c1cnc2c(c1)ccc1cccnc12 [Phenanthroline],binding constant,[3],710 M⁻¹
same,FRET ratio (Cy5:Cy3) in cells in presence of intercalating drug vs no drug,[4],clear difference in FRED ratio
